In the NIST ThermoML archive (doi:10.1016/j.fluid.2007.07.016):

Test: xn = mol fraction of the nth substance listed
Conditions: 101 kPa, Liquid; for viscosity: Capillary tube (Ostwald / Ubbelohde) method; for speed of sound: Linear variable-path acoustic interferometer

C1CCOC1 [tetrahydrofuran] + Cc1ccccc1
Conditions | speed of sound, 288.15 K [m/s] | speed of sound, 298.15 K [m/s] | speed of sound, 308.15 K [m/s] | speed of sound, 318.15 K [m/s] | viscosity, 288.15 K [mPa·s] | viscosity, 298.15 K [mPa·s] | viscosity, 308.15 K [mPa·s] | viscosity, 318.15 K [mPa·s]
x1 = 0.0718 | 1357.7 | 1309.4 | 1264.6 | 1219.3 | 0.6406 | 0.5513 | 0.5013 | 0.4399
x1 = 0.1498 | 1356.3 | 1307.9 | 1262.7 | 1217.3 | 0.635 | 0.5491 | 0.5003 | 0.4415
x1 = 0.2283 | 1354.6 | 1306.2 | 1260.7 | 1215.2 | 0.6285 | 0.5459 | 0.498 | 0.4421
x1 = 0.2902 | 1353.1 | 1304.8 | 1259.1 | 1213.5 | 0.6231 | 0.5431 | 0.4956 | 0.4418
x1 = 0.3452 | 1351.7 | 1303.4 | 1257.6 | 1212 | 0.6176 | 0.5398 | 0.4929 | 0.4408
x1 = 0.4005 | 1350.1 | 1302 | 1255.9 | 1210.4 | 0.6113 | 0.5357 | 0.4894 | 0.4388
x1 = 0.4694 | 1347.8 | 1299.9 | 1253.7 | 1208.2 | 0.6027 | 0.5298 | 0.484 | 0.4352
x1 = 0.5368 | 1345.4 | 1297.7 | 1251.4 | 1205.9 | 0.5934 | 0.523 | 0.4775 | 0.4307
x1 = 0.6067 | 1342.8 | 1295.2 | 1248.8 | 1203.4 | 0.5834 | 0.5155 | 0.4704 | 0.4253
x1 = 0.6704 | 1340.1 | 1292.8 | 1246.3 | 1200.9 | 0.5736 | 0.508 | 0.463 | 0.4196
x1 = 0.7378 | 1337 | 1289.9 | 1243.5 | 1198.3 | 0.5626 | 0.4993 | 0.4544 | 0.4125
x1 = 0.8018 | 1333.8 | 1287 | 1240.7 | 1195.7 | 0.5515 | 0.4903 | 0.4453 | 0.405
x1 = 0.8714 | 1330.2 | 1284 | 1237.6 | 1192.8 | 0.5387 | 0.4797 | 0.4346 | 0.3957
x1 = 0.9368 | 1326.6 | 1280.7 | 1234.5 | 1190 | 0.5259 | 0.469 | 0.4237 | 0.3861
x1 = 1 | 1323.1 | 1277.6 | 1231.5 | 1187.2 | 0.5129 | 0.458 | 0.4125 | 0.3762

Cc1cc(C)cc(C)c1 [1,3,5-trimethylbenzene] + C1CCOC1
Conditions | speed of sound, 288.15 K [m/s] | speed of sound, 298.15 K [m/s] | speed of sound, 308.15 K [m/s] | speed of sound, 318.15 K [m/s] | viscosity, 288.15 K [mPa·s] | viscosity, 298.15 K [mPa·s] | viscosity, 308.15 K [mPa·s] | viscosity, 318.15 K [mPa·s]
x2 = 0 | 1412.3 | 1369.8 | 1325.2 | 1279 | 0.7592 | 0.6572 | 0.5792 | 0.5066
x2 = 0.0735 | 1406.8 | 1363.6 | 1318.5 | 1272.2 | 0.7428 | 0.6449 | 0.5698 | 0.5004
x2 = 0.1513 | 1400.3 | 1356.6 | 1311.2 | 1264.9 | 0.7259 | 0.6321 | 0.5602 | 0.4943
x2 = 0.2274 | 1393.5 | 1349.5 | 1303.9 | 1257.7 | 0.7089 | 0.6192 | 0.5502 | 0.4875
x2 = 0.2986 | 1386.7 | 1342.4 | 1296.7 | 1250.6 | 0.6927 | 0.6066 | 0.5402 | 0.4805
x2 = 0.3672 | 1379.7 | 1335.3 | 1289.6 | 1243.6 | 0.6767 | 0.594 | 0.5301 | 0.4732
x2 = 0.4305 | 1373.5 | 1328.9 | 1283.1 | 1237.3 | 0.6616 | 0.5821 | 0.5203 | 0.4658
x2 = 0.4912 | 1367.5 | 1322.9 | 1277 | 1231.5 | 0.647 | 0.5703 | 0.5106 | 0.4583
x2 = 0.5496 | 1361.9 | 1317.3 | 1271.4 | 1226 | 0.6326 | 0.5586 | 0.5008 | 0.4507
x2 = 0.6055 | 1356.8 | 1312 | 1266.1 | 1220.8 | 0.6186 | 0.5472 | 0.4911 | 0.4429
x2 = 0.6784 | 1350.4 | 1305.4 | 1259.4 | 1214.4 | 0.6 | 0.5318 | 0.4779 | 0.4322
x2 = 0.7516 | 1344 | 1298.8 | 1252.8 | 1207.9 | 0.5809 | 0.5159 | 0.4642 | 0.4208
x2 = 0.828 | 1337.4 | 1292.1 | 1246 | 1201.2 | 0.5609 | 0.499 | 0.4494 | 0.4084
x2 = 0.879 | 1333.2 | 1287.7 | 1241.6 | 1196.9 | 0.5469 | 0.4872 | 0.4388 | 0.3992
x2 = 0.9412 | 1328.2 | 1282.6 | 1236.4 | 1191.8 | 0.5299 | 0.4726 | 0.4258 | 0.3879

C1CCOC1 [tetrahydrofuran] + c1ccccc1
Conditions | speed of sound, 288.15 K [m/s] | speed of sound, 298.15 K [m/s] | speed of sound, 308.15 K [m/s] | speed of sound, 318.15 K [m/s] | viscosity, 288.15 K [mPa·s] | viscosity, 298.15 K [mPa·s] | viscosity, 308.15 K [mPa·s] | viscosity, 318.15 K [mPa·s]
x1 = 0.0754 | 1351.7 | 1302.5 | 1256 | 1206.1 | 0.6847 | 0.5973 | 0.536 | 0.4667
x1 = 0.1518 | 1350.7 | 1301.4 | 1254.7 | 1205.1 | 0.6762 | 0.5921 | 0.533 | 0.4665
x1 = 0.223 | 1349.8 | 1300.6 | 1253.6 | 1204.3 | 0.6673 | 0.5863 | 0.529 | 0.4659
x1 = 0.2962 | 1348.5 | 1299.3 | 1252.2 | 1203.2 | 0.6573 | 0.5793 | 0.5237 | 0.4637
x1 = 0.3556 | 1347.4 | 1298.4 | 1251.3 | 1202.5 | 0.6484 | 0.5728 | 0.5186 | 0.4609
x1 = 0.4128 | 1346.3 | 1297.5 | 1250.3 | 1201.8 | 0.6394 | 0.5659 | 0.5128 | 0.4574
x1 = 0.4812 | 1344.6 | 1296 | 1248.8 | 1200.7 | 0.6277 | 0.5568 | 0.505 | 0.4522
x1 = 0.5506 | 1342.7 | 1294.3 | 1247.1 | 1199.4 | 0.6151 | 0.5467 | 0.4961 | 0.4457
x1 = 0.6219 | 1340.5 | 1292.4 | 1245.1 | 1197.8 | 0.6013 | 0.5353 | 0.4858 | 0.4379
x1 = 0.6884 | 1338 | 1290.2 | 1243 | 1196.1 | 0.5875 | 0.5237 | 0.4752 | 0.4295
x1 = 0.7512 | 1335.3 | 1287.9 | 1240.8 | 1194.4 | 0.5739 | 0.512 | 0.4643 | 0.4207
x1 = 0.8119 | 1332.7 | 1285.5 | 1238.6 | 1192.7 | 0.56 | 0.4999 | 0.4529 | 0.4112
x1 = 0.8792 | 1329.3 | 1282.7 | 1236.1 | 1190.7 | 0.5439 | 0.4857 | 0.4394 | 0.3996
x1 = 0.9388 | 1326.3 | 1280.1 | 1233.8 | 1188.9 | 0.5289 | 0.4724 | 0.4265 | 0.3885
x1 = 1 | 1323.1 | 1277.6 | 1231.5 | 1187.2 | 0.5129 | 0.458 | 0.4125 | 0.3762
